From patent publication US7659071B2, “Methods and compositions relating to HPV-associated pre-cancerous and cancerous growths, including CIN” (Board of Regents, the University of Texas System, priority 2001, dated 2010)
Where “and” joins values, the source holds several entries; their conditions need not be identical. Identical values can stand only once.

How the values were obtained:
[1] = test system: PBMC; assay: T-cell proliferation assay ([3H]thymidine incorporation, stimulation index); format: cell-based, human
Protocol: The proliferative responses of PBMCs from different samples can be determined by the standard ^3[H]thymidine incorporation assay as described in published articles (Nehete, 1996; Nehete, 1995). The significance of T-cell proliferative responses to the individual E6 and E7 peptides (in terms of stimulation index [SI]) can be calculated as the fold increase of ^3[H]thymidine incorporation by cells exposed to the peptide over that by the control to which no peptide was added. An SI value of at least 2.0, including at least about 2.1, 2.2, 2.3, 2.4, 2.5, 2.6, 2.7, 2.8, 2.9, 3.0, 3.1, 3.2, 3.3, 3.4, 3.5, 3.6, 3.7, 3.8, 3.9, 4.0 or more, which are considered positive responses. Generally, an SI value is calculated by measuring the amount of radioactivity (cpm) in media from cells incubated with the peptide(s) and dividing by the amount of radioactivity in media from cells not incubated with peptide(s) (media alone).
Heparinized blood was collected from the study participants by venipuncture. PBMCs were isolated by centrifugation on a Ficoll-Hypaque density gradient ([…]; Sigma Chemical Co., St. Louis, Mo.). The proliferative responses of PBMC from different individuals after stimulation with PHA, c-mos peptide, or individual E6 and E7 peptides (Table 4) were determined using the [^3H]thymidine incorporation assay as previously described Nehete et al., 1996). Briefly, each sample was seeded in triplicate in 96-well microtiter plates and incubated for 7 days at 37° C. in a humidified 5% CO2 atmosphere. During the final 16-18 h, 1 μCi of ^3[H]thymidine (6.7 Ci/mmol; ICN Biomedicals, Inc., Costa Mesa, Calif.) was added. The cells were harvested onto filter strips to estimate ^3[H]thymidine incorporation. The specific radioactivity of cells treated with various additions was calculated in each case by subtracting the counts per minute (cpm) values obtained with cells cultured in medium alone. […] The significance of T-cell proliferative responses to the individual E6 and E7 peptides (in terms of stimulation index [SI]) was calculated as the fold increase of [^3H]thymidine incorporation by cells exposed to the peptide over that by the control to which no peptide was added. An SI value ≧3.0, which was considered a positive response, was used for all statistical analyses to determine the significance of proliferative responses and the association with disease-free or disease-recurrence status.

[2] = test system: PBMC; assay: Cytokine analysis of PBMC culture supernatants (Cytoscreen immunoassay kits); format: cell-based, human; settings: 48 h; for IL-4 production, number of patients positive/number tested: positive = above kit sensitivity 2.0 pg/ml; for IL-10 production, number of patients positive/number tested: positive = above kit sensitivity 5.0 pg/ml; for EL-12 production, number of patients positive/number tested: positive = above kit sensitivity IL-12 = 1.0 pg/ml; for IFN-γ production, number of patients positive/number tested: positive = above kit sensitivity 4.0 pg/ml; for EL-2 production, number of patients positive/number tested: positive = above kit sensitivity IL-2 = 8.7 pg/ml
Protocol: Cryopreserved PBMC were used for these assays. The PBMC (1×10^5) were incubated with various HPV peptides in RPMI-1640 medium (containing 10% fetal calf serum) in triplicate wells of 96-well round-bottom plates for 48 h at 37° C. Supernatants (100 μl) were removed from each well after centrifugation and stored frozen at −70° C. in another 96-well plate. The plates were then thawed and the supernatants assayed for various cytokines (IFN-γ, IL-2, IL-4, IL-10, and IL-12) using the Cytoscreen immunoassay kits (Biosource International, Camarillo, Calif.) according to the manufacturer's instructions.

QAEPDRAHYNIVTFCCKCD (listed as Human papillomavirus) [Q19D, E7 peptide from HPV-16, aa 44-62]
level of proliferative responses compared with the other peptides [1]: higher levels of proliferative responses | Proliferative Response No (SI < 3.0) to specific peptide, number (%) of women ([1]; Group 3 (disease-free), n = 22): 9 (41%) | Proliferative Response No (SI < 3.0) to specific peptide, number (%) of women ([1]; Group 4 (recurrence), n = 10): 10 (100%) | IL-4 production, number of patients positive/number tested ([2]; Group 3 (n = 8)): none and 0/8 | IL-10 production, number of patients positive/number tested ([2]; Group 3 (n = 8)): 3 and 3/8 | EL-12 production, number of patients positive/number tested ([2]; Group 3 (n = 8)): 6 of 8 and 6/8 | IL-4 production, number of patients positive/number tested ([2]; Group 4 (n = 6)): 1 of the 6 and 1/6 | IFN-γ production, number of patients positive/number tested ([2]; Group 4 (n = 6)): 0/6 | IL-10 production, number of patients positive/number tested ([2]; Group 4 (n = 6)): 6 of 6 and 6/6 | EL-2 production, number of patients positive/number tested ([2]; Group 4 (n = 6)): 0/6 | EL-12 production, number of patients positive/number tested ([2]; Group 4 (n = 6)): 1/6

QLLRREVYDFAFRDL (listed as Human papillomavirus) [Q15L, E6 peptide from HPV-16, aa 43-57]
level of proliferative responses compared with the other peptides [1]: higher levels of proliferative responses | Proliferative Response No (SI < 3.0) to specific peptide, number (%) of women ([1]; Group 3 (disease-free), n = 22): 11 (50%) | Proliferative Response No (SI < 3.0) to specific peptide, number (%) of women ([1]; Group 4 (recurrence), n = 10): 10 (100%) | IL-4 production, number of patients positive/number tested ([2]; Group 3 (n = 8)): none and 0/8 | IL-10 production, number of patients positive/number tested ([2]; Group 3 (n = 8)): 3 and 3/8 | EL-12 production, number of patients positive/number tested ([2]; Group 3 (n = 8)): 3 of 8 and 3/8 | IL-4 production, number of patients positive/number tested ([2]; Group 4 (n = 6)): 1 of the 6 and 1/6 | IFN-γ production, number of patients positive/number tested ([2]; Group 4 (n = 6)): 0/6 | IL-10 production, number of patients positive/number tested ([2]; Group 4 (n = 6)): 5 of 6 and 5/6 | EL-2 production, number of patients positive/number tested ([2]; Group 4 (n = 6)): 0/6 | EL-12 production, number of patients positive/number tested ([2]; Group 4 (n = 6)): 0/6

RAHYNIVTF (listed as Human papillomavirus) [R9F, E7 peptide from HPV-16, aa 49-57]
level of proliferative responses compared with the other peptides [1]: higher levels of proliferative responses | Proliferative Response No (SI < 3.0) to specific peptide, number (%) of women ([1]; Group 3 (disease-free), n = 22): 12 (54%)

STRTPEDSNSLGT (Murine) [c-mos peptide, peptide from the c-mos protooncogene, aa 158-170, used as a negative control, reference compound]
stimulation index (SI), proliferative response ([1]; women in the four study groups): < 2.0

VYDFAFRDLC (listed as Human papillomavirus) [V10C, E6 peptide from HPV-16, aa 49-58]
level of proliferative responses compared with the other peptides [1]: higher levels of proliferative responses | Proliferative Response No (SI < 3.0) to specific peptide, number (%) of women ([1]; Group 3 (disease-free), n = 22): 11 (50%) | Proliferative Response No (SI < 3.0) to specific peptide, number (%) of women ([1]; Group 4 (recurrence), n = 10): 10 (100%)
